From publication PMC5429603, “Discovery and characterization of verinurad, a potent and specific inhibitor of URAT1 for the treatment of hyperuricemia and gout” (Scientific Reports, 2017) come the findings set out here.

Experiment [1] addresses T1, human URAT1 h-F449Y (Homo sapiens, UniProt Q96S37, F449Y).
T1 construct: expressed in transfected cells; host or cells: HEK-293T
T1 sequence (Q96S37 1-553 F449Y): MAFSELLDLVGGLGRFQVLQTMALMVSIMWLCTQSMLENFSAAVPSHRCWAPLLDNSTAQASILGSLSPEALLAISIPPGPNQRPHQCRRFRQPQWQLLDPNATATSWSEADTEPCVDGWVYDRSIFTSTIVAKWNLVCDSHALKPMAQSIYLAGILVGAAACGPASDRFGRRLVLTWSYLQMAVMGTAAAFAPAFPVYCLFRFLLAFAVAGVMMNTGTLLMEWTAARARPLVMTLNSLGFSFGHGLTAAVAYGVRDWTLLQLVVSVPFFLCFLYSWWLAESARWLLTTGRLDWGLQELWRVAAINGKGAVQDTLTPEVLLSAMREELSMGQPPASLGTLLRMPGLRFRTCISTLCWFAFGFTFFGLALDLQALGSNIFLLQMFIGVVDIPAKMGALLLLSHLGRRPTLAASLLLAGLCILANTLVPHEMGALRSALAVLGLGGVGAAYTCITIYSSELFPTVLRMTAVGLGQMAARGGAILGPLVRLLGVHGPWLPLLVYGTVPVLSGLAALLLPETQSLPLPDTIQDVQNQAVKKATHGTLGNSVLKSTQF
Put plainly: URAT1 activity assay, h-F449Y. It is filed as cell-based. The text has this: (§1) Human URAT1 (GenBank BC053348.1, Homo sapiens SLC22A12), rat URAT1 (NCBI NM_001034943.1, Rattus norvegicus Slc22a12) and human OAT4 (NCBI NM_018484.2, Homo sapiens SLC22A11) genes were purchased from Origene Technologies, Inc. and subcloned into pCMV6/neo using NotI. Where indicated, controls transfections used pCMV6/neo. Mutants were produced by site-directed mutagenesis using the QuikChange Lightning Multi Site-Directed Mutagenesis Kit (Agilent Technologies). […] Mutagenic primer sequences are provided in ref. [15] and mutagenic primer sequences for previously unreported mutants shown in Supplementary Table 1. All constructs used in this study were untagged. Human OAT1 was purchased from Fisher Scientific (catalog # MHS1010–7508183 in pSPORT6, NCBI NM_153276.2, Homo sapiens SLC22A6).
HEK-293T cells were maintained in DMEM/high glucose/L-glutamine/HEPES supplemented with 1 mM sodium pyruvate (Life Technologies) and 10% FBS (PAA Laboratories) at 37 °C in 5% CO2. To express URAT1, OAT4 or OAT1, plasmids were reverse transfected into HEK-293T cells. DNA (10 µg) was mixed with 30 µl of DreamFect Gold (Boca Scientific) in 2 ml OptiMem (Life Technologies). After 20 minutes, 18 ml of media containing 2 × 10^7 cells in suspension was added and mixed, and 200 µl per well were plated onto white clear-bottomed poly-D-lysine coated 96-well plates (BD Biosciences). The cells were assayed the following day.
URAT1 and OAT4 activity assays were performed in assay buffer consisting of 25 mM MES pH 5.5 (from a 1 M MES solution [Sigma] adjusted to pH 5.5 with sodium hydroxide), 125 mM sodium gluconate, 4.8 mM potassium gluconate, 1.2 mM monobasic potassium phosphate, 1.2 mM magnesium sulfate, 1.3 mM calcium gluconate and 5.6 mM glucose. URAT1 inhibitors were serially diluted into assay buffer and added to the cells for 5 minutes prior to addition of substrate. URAT1-expressing cells were incubated with 100 µM ^14C-uric acid for 10 minutes and OAT4-expressing cells were incubated with 20 µM carboxyfluorescein (Life Technologies, Inc.) for 5 minutes. Cells were then washed three times in 25 mM MES pH 5.5/125 mM sodium gluconate, and solubilized in Ultima Gold (Perkin Elmer) prior to liquid scintillation counting. Each treatment was measured in triplicate.

The target in experiment [2] is T2, human URAT1-F449Y (Homo sapiens, UniProt Q96S37, F449Y).
T2 construct: expressed in transfected cells; host or cells: HEK-293T
Put plainly: URAT1 binding assay with 3H-verinurad, h-F449Y membranes. How it is done: The plates were then subjected to scintillation counting. All samples were assayed in triplicate.

Experiment [3] concerns the target T3, rat URAT1 r-N35S (Rattus norvegicus, UniProt Q3ZAV1, N35S).
T3 construct: expressed in transfected cells; host or cells: HEK-293T
Put plainly: URAT1 activity assay, r-N35S. The experiment is classed as cell-based.
Description: as §1
(§2) HEK-293T cells were maintained in DMEM/high glucose/L-glutamine/HEPES supplemented with 1 mM sodium pyruvate (Life Technologies) and 10% FBS (PAA Laboratories) at 37 °C in 5% CO2. […]
(§3) URAT1 and OAT4 activity assays were performed in assay buffer consisting of 25 mM MES pH 5.5 (from a 1 M MES solution [Sigma] adjusted to pH 5.5 with sodium hydroxide), 125 mM sodium gluconate, 4.8 mM potassium gluconate, 1.2 mM monobasic potassium phosphate, 1.2 mM magnesium sulfate, 1.3 mM calcium gluconate and 5.6 mM glucose. […] Each treatment was measured in triplicate.

Experiment [4] deals with T4, human URAT1 h-M25V (Homo sapiens, UniProt Q96S37, M25V).
T4 construct: expressed in transfected cells; host or cells: HEK-293T
T4 sequence (Q96S37 whole entry M25V): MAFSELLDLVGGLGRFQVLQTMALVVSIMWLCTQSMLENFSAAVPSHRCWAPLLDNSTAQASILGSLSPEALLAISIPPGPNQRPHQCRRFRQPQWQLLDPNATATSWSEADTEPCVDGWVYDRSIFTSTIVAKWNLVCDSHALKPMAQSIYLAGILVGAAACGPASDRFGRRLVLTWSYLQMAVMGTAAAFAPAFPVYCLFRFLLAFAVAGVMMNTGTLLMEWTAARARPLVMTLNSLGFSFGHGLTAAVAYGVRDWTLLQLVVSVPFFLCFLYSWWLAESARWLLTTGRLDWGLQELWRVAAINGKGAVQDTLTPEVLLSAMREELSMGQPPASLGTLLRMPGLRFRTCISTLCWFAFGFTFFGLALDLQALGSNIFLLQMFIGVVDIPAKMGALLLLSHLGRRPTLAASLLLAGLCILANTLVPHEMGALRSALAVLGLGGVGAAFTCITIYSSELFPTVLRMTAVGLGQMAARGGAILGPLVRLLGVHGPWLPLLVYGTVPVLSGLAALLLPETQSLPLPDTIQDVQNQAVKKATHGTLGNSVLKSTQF
Put plainly: URAT1 activity assay, h-M25V. The experiment is classed as cell-based. To be noted: TM1 point mutant, read-out: Verinurad affinity (IC50).
Description: as §1, §2, §3

The target of experiment [5] is T5, human OAT1 (Homo sapiens, UniProt Q4U2R8).
T5 construct: host or cells: HEK-293T
T5 sequence (Q4U2R8 1-550 isoform Q4U2R8-2): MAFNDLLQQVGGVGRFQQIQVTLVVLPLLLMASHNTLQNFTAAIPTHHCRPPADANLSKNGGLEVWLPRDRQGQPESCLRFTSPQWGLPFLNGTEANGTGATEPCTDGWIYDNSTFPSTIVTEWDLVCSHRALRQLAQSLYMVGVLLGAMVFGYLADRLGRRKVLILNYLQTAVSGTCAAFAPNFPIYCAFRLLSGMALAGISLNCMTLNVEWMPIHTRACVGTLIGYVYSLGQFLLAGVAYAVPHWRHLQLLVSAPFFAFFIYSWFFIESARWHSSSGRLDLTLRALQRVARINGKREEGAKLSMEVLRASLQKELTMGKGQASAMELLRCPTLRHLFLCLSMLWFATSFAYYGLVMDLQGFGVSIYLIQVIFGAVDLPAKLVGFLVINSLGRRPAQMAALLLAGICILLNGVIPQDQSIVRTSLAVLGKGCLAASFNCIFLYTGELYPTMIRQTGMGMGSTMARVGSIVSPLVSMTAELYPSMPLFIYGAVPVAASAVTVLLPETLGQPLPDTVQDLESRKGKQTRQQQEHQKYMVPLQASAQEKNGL
Put plainly: OAT1 activity assay (carboxyfluorescein transport). It is filed as cell-based. How it is done: DNA (10 μg) was mixed with 30 μl of […] Gold (Boca Scientific) in 2 ml OptiMem (Life Technologies). […] The cells were assayed the following day. OAT1-expressing cells were assayed in a buffer containing 20 mM HEPES (from a 1 M solution at pH 7.3; USB Corporation), 130 mM sodium chloride, 4 mM potassium chloride, 1 mM magnesium sulfate, 1 mM calcium chloride, 1 mM sodium phosphate dibasic and 18 mM glucose. […] Cells were then solubilized in 0.1 N sodium hydroxide prior to fluorimetry measurements. Each treatment was measured in triplicate.

Experiment [6] concerns the target T6, human URAT1 h-S35N (Homo sapiens, UniProt Q96S37, S35N).
T6 construct: expressed in transfected cells; host or cells: HEK-293T
Put plainly: URAT1 activity assay, h-S35N. It is filed as cell-based.
Description: as §1, §2, §3

In experiment [7] the target is T7, human URAT1-F365Y (Homo sapiens, UniProt Q96S37, F365Y).
T7 construct: expressed in transfected cells; host or cells: HEK-293T
T7 sequence (Q96S37 whole entry F365Y): as the sequence (Q96S37 whole entry M25V) above, with V25M, F365Y counted along it
Put plainly: URAT1 activity assay, h-F365Y. The experiment is classed as cell-based.
Description: as §1, §2, §3

Experiment [8] has as its target T8, rat URAT1 r-V25M (Rattus norvegicus, UniProt Q3ZAV1, V25M).
T8 construct: expressed in transfected cells; host or cells: HEK-293T
Put plainly: URAT1 activity assay, r-V25M. The experiment is classed as cell-based.
Description: as §1, §2, §3

Where [9] appears, read: TM1 point mutant, read-out: Verinurad affinity (IC50).

T6 sequence (Q96S37 whole entry S35N): as the sequence (Q96S37 whole entry M25V) above, with V25M, S35N counted along it
T8 sequence (Q3ZAV1 whole entry V25M): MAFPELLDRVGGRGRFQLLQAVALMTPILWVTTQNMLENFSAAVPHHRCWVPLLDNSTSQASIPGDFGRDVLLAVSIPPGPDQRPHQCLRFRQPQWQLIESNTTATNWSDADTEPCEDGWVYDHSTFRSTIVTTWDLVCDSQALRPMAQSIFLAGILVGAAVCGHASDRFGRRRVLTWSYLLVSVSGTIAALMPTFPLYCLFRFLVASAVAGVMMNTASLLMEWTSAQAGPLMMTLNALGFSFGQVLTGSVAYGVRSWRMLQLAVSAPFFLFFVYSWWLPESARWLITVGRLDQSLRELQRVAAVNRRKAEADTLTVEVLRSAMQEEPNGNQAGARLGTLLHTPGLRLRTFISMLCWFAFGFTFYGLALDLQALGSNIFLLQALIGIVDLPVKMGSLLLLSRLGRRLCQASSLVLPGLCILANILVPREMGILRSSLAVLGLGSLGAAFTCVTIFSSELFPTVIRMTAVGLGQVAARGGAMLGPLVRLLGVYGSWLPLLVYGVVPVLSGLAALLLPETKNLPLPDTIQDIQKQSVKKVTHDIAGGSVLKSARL
T3 sequence (Q3ZAV1 whole entry N35S): as the sequence (Q3ZAV1 whole entry V25M) above, with M25V, N35S counted along it

Regarding `CC(C)(Sc1ccncc1-c1ccc(C#N)c2ccccc12)C(=O)O` [Verinurad, 2-((3-(4-cyanonaphthalen-1-yl)pyrindin-4-yl)thio)-2-methylpropanoic acid], in experiment [1] (h-F449Y), the “fold reduced affinity compared to human URAT1” value is on record as “the same affinity”. Further, the IC50 in experiment [1] (h-F449Y binding site point mutant) is 25 nM; in experiment [2] (h-F449Y membranes, read-out: IC50, inhibition of 3H-verinurad binding to h-F449Y), 5.9 nM; in experiment [3] (setting [9]), 10000 ± 1500 nM; in experiment [4], 29 ± 10 nM; in experiment [5] (human OAT1 in HEK-293T, 20 µM carboxyfluorescein, read-out: IC50, inhibition of transport activity), 4600 ± 1400 nM; in experiment [6] (setting [9]) it was 360 ± 150 nM. Further, the concentration for half-maximal inhibition (IC50) in experiment [7] (TM7 point mutant, read-out: Verinurad affinity (IC50)) was 4000 ± 1700 nM; in experiment [8] (r-V25M, TM1 point mutant, read-out: Verinurad affinity (IC50)) it was 18000 ± 3200 nM. In experiment [2] (h-F449Y vs human URAT1), the “fold reduced potency at h-F449Y compared to wild type human URAT1, binding assay” value is given as “the same affinity”. Besides, the “fold higher affinity relative to rat URAT1” value in experiment [3] is on record as 4 fold. Moreover, the “fold lower affinity compared to URAT1” value in experiment [5] (human OAT1 vs human URAT1) is given as “approximately 200 fold”. Besides, the “fold lower affinity relative to human URAT1” value in experiment [6] is on record as 14 fold; in experiment [7], 160 fold. In experiment [8] (r-V25M vs rat URAT1), the “fold increase in affinity” value is 2.3 fold.
